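Results reflect a 48-hour exposure of cells in 96-well plates to compound at five concentrations. GI50 = concentration required for 50% inhibition of growth. TGI is the concentration that stops growth completely.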
Legend:
Experiment in all cases: growth of human tumour cells (NCI), 48 h
BT-549 breast = system: BT-549 breast
SR leukemia = system: SR leukemia
NCI/ADR-RES ovarian = system: NCI/ADR-RES ovarian
SNB-19 CNS = system: SNB-19 CNS
NCI-H460 lung = system: NCI-H460 lung
PC-3 prostate = system: PC-3 prostate
SN12C renal = system: SN12C renal
HOP-62 NSCLC = system: HOP-62 NSCLC
SNB-75 CNS = system: SNB-75 CNS
A498 renal = system: A498 renal
SF-539 CNS = system: SF-539 CNS
HS 578T breast = system: HS 578T breast
OVCAR-5 ovarian = system: OVCAR-5 ovarian
HL-60(TB) leukemia = system: HL-60(TB) leukemia
SF-268 CNS = system: SF-268 CNS
NCI-H522 lung = system: NCI-H522 lung
ACHN renal = system: ACHN renal
HCT-116 colon = system: HCT-116 colon
SK-OV-3 ovarian = system: SK-OV-3 ovarian
MALME-3M melanoma = system: MALME-3M melanoma
OVCAR-8 ovarian = system: OVCAR-8 ovarian
SK-MEL-5 melanoma = system: SK-MEL-5 melanoma
SF-295 CNS = system: SF-295 CNS
EKVX NSCLC = system: EKVX NSCLC
MDA-MB-435 = system: MDA-MB-435
NCI-H226 lung = system: NCI-H226 lung
DU-145 prostate = system: DU-145 prostate
HT29 colon = system: HT29 colon
HCC-2998 colon = system: HCC-2998 colon
A549 NSCLC = system: A549 NSCLC
COLO 205 colon = system: COLO 205 colon
IGROV1 ovarian = system: IGROV1 ovarian
RXF 393 renal = system: RXF 393 renal
M14 melanoma = system: M14 melanoma
HOP-92 NSCLC = system: HOP-92 NSCLC
NCI-H23 lung = system: NCI-H23 lung
MCF7 breast = system: MCF7 breast
SW-620 colon = system: SW-620 colon
OVCAR-3 ovarian = system: OVCAR-3 ovarian
SK-MEL-28 melanoma = system: SK-MEL-28 melanoma
SK-MEL-2 melanoma = system: SK-MEL-2 melanoma
CCRF-CEM leukemia = system: CCRF-CEM leukemia
CAKI-1 renal = system: CAKI-1 renal
RPMI-8226 leukemia = system: RPMI-8226 leukemia
UACC-257 melanoma = system: UACC-257 melanoma
UACC-62 melanoma = system: UACC-62 melanoma
OVCAR-4 ovarian = system: OVCAR-4 ovarian
KM12 colon = system: KM12 colon
MDA-MB-231 breast = system: MDA-MB-231 breast
786-0 renal = system: 786-0 renal
K-562 leukemia = system: K-562 leukemia
T-47D breast = system: T-47D breast
LOX IMVI melanoma = system: LOX IMVI melanoma
UO-31 renal = system: UO-31 renal
MOLT-4 leukemia = system: MOLT-4 leukemia

O=C1c2ccc3c4c(ccc(c24)C(=O)N1CCCNCc1ccccc1F)C(=O)N(CCCNCc1ccccc1F)C3=O
GI50 (BT-549 breast): 317 nM | TGI (BT-549 breast): 767 nM | GI50 (SR leukemia): 123 nM | TGI (SR leukemia): 614 nM | GI50 (NCI/ADR-RES ovarian): 206 nM | TGI (NCI/ADR-RES ovarian): 726 nM | GI50 (SNB-19 CNS): 136 nM | TGI (SNB-19 CNS): 275 nM | GI50 (NCI-H460 lung): 154 nM | TGI (NCI-H460 lung): 504 nM | GI50 (PC-3 prostate): 228 nM | TGI (PC-3 prostate): 658 nM | GI50 (SN12C renal): 144 nM | TGI (SN12C renal): 296 nM | GI50 (HOP-62 NSCLC): 151 nM | TGI (HOP-62 NSCLC): 331 nM | GI50 (SNB-75 CNS): 164 nM | TGI (SNB-75 CNS): 320 nM | GI50 (A498 renal): 310 nM | TGI (A498 renal): 1720 nM | GI50 (SF-539 CNS): 208 nM | TGI (SF-539 CNS): 464 nM | GI50 (HS 578T breast): 523 nM | TGI (HS 578T breast): 2860 nM | GI50 (OVCAR-5 ovarian): 200 nM | TGI (OVCAR-5 ovarian): 449 nM | GI50 (HL-60(TB) leukemia): 239 nM | TGI (HL-60(TB) leukemia): 542 nM | GI50 (SF-268 CNS): 208 nM | TGI (SF-268 CNS): 534 nM | GI50 (NCI-H522 lung): 154 nM | TGI (NCI-H522 lung): 298 nM | GI50 (ACHN renal): 127 nM | TGI (ACHN renal): 563 nM | GI50 (HCT-116 colon): 67.6 nM | TGI (HCT-116 colon): 303 nM | GI50 (SK-OV-3 ovarian): 249 nM | TGI (SK-OV-3 ovarian): 635 nM | GI50 (MALME-3M melanoma): 151 nM | TGI (MALME-3M melanoma): 299 nM | GI50 (OVCAR-8 ovarian): 95.4 nM | TGI (OVCAR-8 ovarian): 422 nM | GI50 (SK-MEL-5 melanoma): 163 nM | TGI (SK-MEL-5 melanoma): 299 nM | GI50 (SF-295 CNS): 176 nM | TGI (SF-295 CNS): 409 nM | GI50 (EKVX NSCLC): 171 nM | TGI (EKVX NSCLC): 331 nM | GI50 (MDA-MB-435): 175 nM | TGI (MDA-MB-435): 359 nM | GI50 (NCI-H226 lung): 210 nM | TGI (NCI-H226 lung): 482 nM | GI50 (DU-145 prostate): 154 nM | TGI (DU-145 prostate): 287 nM | GI50 (HT29 colon): 49.4 nM | TGI (HT29 colon): 203 nM | GI50 (HCC-2998 colon): 158 nM | TGI (HCC-2998 colon): 312 nM | GI50 (A549 NSCLC): 107 nM | TGI (A549 NSCLC): 294 nM | GI50 (COLO 205 colon): 86.3 nM | TGI (COLO 205 colon): 208 nM | GI50 (IGROV1 ovarian): 180 nM | TGI (IGROV1 ovarian): 543 nM | GI50 (RXF 393 renal): 138 nM | TGI (RXF 393 renal): 274 nM | GI50 (M14 melanoma): 152 nM | TGI (M14 melanoma): 293 nM | GI50 (HOP-92 NSCLC): 238 nM | TGI (HOP-92 NSCLC): 566 nM | GI50 (NCI-H23 lung): 171 nM | TGI (NCI-H23 lung): 369 nM | GI50 (MCF7 breast): 109 nM | TGI (MCF7 breast): 359 nM | GI50 (SW-620 colon): 75.4 nM | TGI (SW-620 colon): 274 nM | GI50 (OVCAR-3 ovarian): 189 nM | TGI (OVCAR-3 ovarian): 557 nM | GI50 (SK-MEL-28 melanoma): 210 nM | TGI (SK-MEL-28 melanoma): 465 nM | GI50 (SK-MEL-2 melanoma): 192 nM | TGI (SK-MEL-2 melanoma): 366 nM | GI50 (CCRF-CEM leukemia): 166 nM | GI50 (CAKI-1 renal): 187 nM | TGI (CAKI-1 renal): 495 nM | GI50 (RPMI-8226 leukemia): 272 nM | TGI (RPMI-8226 leukemia): 818 nM | GI50 (UACC-257 melanoma): 172 nM | TGI (UACC-257 melanoma): 340 nM | GI50 (UACC-62 melanoma): 179 nM | TGI (UACC-62 melanoma): 335 nM | GI50 (OVCAR-4 ovarian): 109 nM | TGI (OVCAR-4 ovarian): 237 nM | GI50 (KM12 colon): 127 nM | TGI (KM12 colon): 285 nM | GI50 (MDA-MB-231 breast): 250 nM | TGI (MDA-MB-231 breast): 717 nM | GI50 (786-0 renal): 217 nM | TGI (786-0 renal): 587 nM | GI50 (K-562 leukemia): 209 nM | TGI (K-562 leukemia): 5520 nM | GI50 (T-47D breast): 194 nM | TGI (T-47D breast): 417 nM | GI50 (LOX IMVI melanoma): 121 nM | TGI (LOX IMVI melanoma): 317 nM | GI50 (UO-31 renal): 194 nM | TGI (UO-31 renal): 468 nM | GI50 (MOLT-4 leukemia): 144 nM | TGI (MOLT-4 leukemia): 544 nM

Source: PubChem BioAssay (NCI)
